Values of other authors in US20070065414A1, “Enhanced delivery of cells” (Boston Scientific Scimed, Inc., priority 2005, published 2007).

Conditions: general statement, no experiment described

For `Nc1ncnc2c1ncn2[C@@H]1O[C@H](CO)[C@@H](O)[C@H]1O` [Adenosine, adenosine], the blood pool half-life is given as “only a few seconds”.
